Laboratory results taken from PubChem BioAssay AID248 (DTP/NCI, 2004).
“And” between values parts separate entries of the source, which are not always exact repeats. Equal entries are not always repeated. Inconclusive results and toxic doses are left out. No stated cut-off is given here; in the data, active means T/C of 150% or more; inactive means T/C below 125%.

Test system: L1210 leukemia ip in BDF1 mice, survival T/C
Test: NCI In Vivo Anticancer Drug Screen. Data for tumor model L1210 Leukemia (intraperitoneal) in B6D2F1 (BDF1) mice
Settings: endpoint: mean survival time, higher = longer survival
Outline: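 Transplantable tumor model; survival measured in treated vs vehicle control mice. Value = treated/control.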

[1] = dose: 12.5 mg/kg/injection, schedule: Q04DX003 (ip), vehicle: saline
[2] = dose: 25.0 mg/kg/injection, schedule: Q04DX003 (ip), vehicle: saline
[3] = dose: 50.0 mg/kg/injection, schedule: Q04DX003 (ip), vehicle: saline
[4] = dose: 100.0 mg/kg/injection, schedule: Q01DX009 (ip), vehicle: Klucel (hydroxypropylcellulose) (HPC)
[5] = dose: 200.0 mg/kg/injection, schedule: Q01DX009 (ip), vehicle: Klucel (hydroxypropylcellulose) (HPC)
[6] = dose: 400.0 mg/kg/injection, schedule: Q01DX009 (ip), vehicle: Klucel (hydroxypropylcellulose) (HPC)
[7] = dose: 50.0 mg/kg/injection, schedule: Q01DX009 (ip), vehicle: acetone
[8] = dose: 100.0 mg/kg/injection, schedule: Q01DX009 (ip), vehicle: acetone
[9] = dose: 200.0 mg/kg/injection, schedule: Q01DX009 (ip), vehicle: acetone
[10] = dose: 100.0 mg/kg/injection, schedule: Q01DX009 (ip), vehicle: saline with Tween-80
[11] = dose: 200.0 mg/kg/injection, schedule: Q01DX009 (ip), vehicle: saline with Tween-80
[12] = dose: 100.0 mg/kg/injection, schedule: Q04DX003 (ip), vehicle: saline with Tween-80
[13] = dose: 200.0 mg/kg/injection, schedule: Q04DX003 (ip), vehicle: saline with Tween-80
[14] = dose: 400.0 mg/kg/injection, schedule: Q01DX009 (ip), vehicle: saline with Tween-80
[15] = dose: 400.0 mg/kg/injection, schedule: Q04DX003 (ip), vehicle: saline with Tween-80

Measured: T/C

CCCCCCCCCCCCCCCCCC[n+]1cccc(C(=O)N2CCOCC2)c1
inactive: dose: 2.0 mg/kg/injection, schedule: Q01DX009 (ip), vehicle: Klucel (hydroxypropylcellulose) (HPC) 97 % of control | dose: 4.0 mg/kg/injection, schedule: Q01DX009 (ip), vehicle: Klucel (hydroxypropylcellulose) (HPC) 110 % of control | dose: 8.0 mg/kg/injection, schedule: Q01DX009 (ip), vehicle: Klucel (hydroxypropylcellulose) (HPC) 98 % of control | dose: 12.5 mg/kg/injection, schedule: Q04DX003 (ip), vehicle: Klucel (hydroxypropylcellulose) (HPC) 88 % of control | dose: 16.0 mg/kg/injection, schedule: Q01DX009 (ip), vehicle: Klucel (hydroxypropylcellulose) (HPC) 104 % of control | dose: 25.0 mg/kg/injection, schedule: Q04DX003 (ip), vehicle: Klucel (hydroxypropylcellulose) (HPC) 96 % of control | dose: 32.0 mg/kg/injection, schedule: Q01DX009 (ip), vehicle: Klucel (hydroxypropylcellulose) (HPC) 90 % of control | dose: 50.0 mg/kg/injection, schedule: Q04DX003 (ip), vehicle: Klucel (hydroxypropylcellulose) (HPC) 93 % of control | dose: 100.0 mg/kg/injection, schedule: Q04DX003 (ip), vehicle: Klucel (hydroxypropylcellulose) (HPC) 92 % of control

COC(=O)c1c2ccccc2[n+](C)c2ccccc12
inactive: [1] 96 % of control | [2] 100 % of control | [3] 102 % of control

CCc1ccc(NC(=O)c2cc(OC)c(OC)c(OC)c2)cc1
inactive: [4] 100 % of control | [5] 97 % of control | [6] 101 % of control

O=C(C1=CCCCC1)c1ccccc1
inactive: dose: 75.0 mg/kg/injection, schedule: Q04DX002 (ip), vehicle: saline with Tween-80 108 % of control | dose: 150.0 mg/kg/injection, schedule: Q04DX002 (ip), vehicle: saline with Tween-80 97 % of control | dose: 300.0 mg/kg/injection, schedule: Q04DX002 (ip), vehicle: saline with Tween-80 114 % of control

CCN(CC)CC(=O)NCC(CCN1CCCCC1)(Cc1cccc2ccccc12)C(C)C (configuration not stated)
inactive: [1] 106 % of control | [2] 98 % of control | [3] 97 % of control

C1OCC2(CO1)COCOC2
inactive: [7] 95 % of control | [8] 91 % of control | dose: 100.0 mg/kg/injection, schedule: Q04DX003 (ip), vehicle: saline 95 % of control | [9] 93 % of control | dose: 200.0 mg/kg/injection, schedule: Q04DX003 (ip), vehicle: saline 103 % of control | dose: 400.0 mg/kg/injection, schedule: Q04DX003 (ip), vehicle: saline 105 % of control

C=CCNC(=S)Nc1ccc(O)cc1
inactive: [4] 91 % of control | [5] 97 % of control | [6] 96 % of control

CC(=O)N=C(N)N(/N=C(C)\C=N\N(C(C)=O)C(N)=NC(C)=O)C(C)=O
inactive: dose: 15.0 mg/kg/injection, schedule: Q01DX Z (ip), vehicle: carboxymethylcellulose (CMC) 96 % of control | dose: 30.0 mg/kg/injection, schedule: Q01DX Z (ip), vehicle: carboxymethylcellulose (CMC) 96 % of control | dose: 60.0 mg/kg/injection, schedule: Q01DX Z (ip), vehicle: carboxymethylcellulose (CMC) 93 % of control and 91 % of control | dose: 120.0 mg/kg/injection, schedule: Q01DX Z (ip), vehicle: carboxymethylcellulose (CMC) 97 % of control and 90 % of control | dose: 240.0 mg/kg/injection, schedule: Q01DX Z (ip), vehicle: carboxymethylcellulose (CMC) 92 % of control | dose: 480.0 mg/kg/injection, schedule: Q01DX Z (ip), vehicle: carboxymethylcellulose (CMC) 94 % of control

CC(C)CC(CC(C)C)NC(C)COC(=O)c1ccc(N)cc1 (configuration not stated)
inactive: dose: 75.0 mg/kg/injection, schedule: Q01DX001 (ip), vehicle: saline 96 % of control

CCCCCNc1ccnc(=O)[nH]1
inactive: dose: 50.0 mg/kg/injection, schedule: Q01DX001 (ip), vehicle: Klucel (hydroxypropylcellulose) (HPC) 99 % of control | dose: 100.0 mg/kg/injection, schedule: Q01DX001 (ip), vehicle: Klucel (hydroxypropylcellulose) (HPC) 94 % of control | dose: 200.0 mg/kg/injection, schedule: Q01DX001 (ip), vehicle: Klucel (hydroxypropylcellulose) (HPC) 96 % of control

CC(=O)NNC(=O)Nc1cccc(C(F)(F)F)c1
inactive: dose: 50.0 mg/kg/injection, schedule: Q01DX009 (ip), vehicle: saline with Tween-80 94 % of control | [10] 91 % of control

CC1CC(C)(C)OC(C)(C)O1 (configuration not stated)
inactive: [7] 90 % of control and 95 % of control | [8] 97 % of control and 94 % of control | dose: 100.0 mg/kg/injection, schedule: Q04DX002 (ip), vehicle: saline with Tween-80 101 % of control | dose: 100.0 mg/kg/injection, schedule: Q04DX003 (ip), vehicle: acetone 104 % of control and 109 % of control | [9] 94 % of control and 95 % of control | dose: 200.0 mg/kg/injection, schedule: Q04DX002 (ip), vehicle: saline with Tween-80 93 % of control | dose: 200.0 mg/kg/injection, schedule: Q04DX003 (ip), vehicle: acetone 95 % of control and 104 % of control | dose: 400.0 mg/kg/injection, schedule: Q04DX002 (ip), vehicle: saline with Tween-80 104 % of control | dose: 400.0 mg/kg/injection, schedule: Q04DX003 (ip), vehicle: acetone 94 % of control and 95 % of control

C=CC1OC2OC(C)(C)OC2C1O (configuration not stated)
inactive: dose: 5.0 mg/kg/injection, schedule: Q01DX001 (ip), vehicle: saline 91 % of control | dose: 10.0 mg/kg/injection, schedule: Q01DX001 (ip), vehicle: saline 98 % of control | dose: 18.7 mg/kg/injection, schedule: Q01DX001 (ip), vehicle: steriod suspending solution 108 % of control | dose: 20.0 mg/kg/injection, schedule: Q01DX001 (ip), vehicle: saline 93 % of control | dose: 37.5 mg/kg/injection, schedule: Q01DX001 (ip), vehicle: steriod suspending solution 103 % of control | dose: 40.0 mg/kg/injection, schedule: Q01DX001 (ip), vehicle: saline 96 % of control | dose: 75.0 mg/kg/injection, schedule: Q01DX001 (ip), vehicle: steriod suspending solution 109 % of control | dose: 150.0 mg/kg/injection, schedule: Q01DX001 (ip), vehicle: steriod suspending solution 98 % of control | dose: 200.0 mg/kg/injection, schedule: Q01DX001 (ip), vehicle: steriod suspending solution 104 % of control | dose: 400.0 mg/kg/injection, schedule: Q01DX001 (ip), vehicle: steriod suspending solution 103 % of control

CCCCCCCCCCCCN1CCC(=O)NC1=O
inactive: [10] 100 % of control | [11] 97 % of control

O=C1NC(=O)C2(CCCc3ccccc32)N1 (configuration not stated)
inactive: dose: 25.0 mg/kg/injection, schedule: Q04DX002 (ip), vehicle: Klucel (hydroxypropylcellulose) (HPC) 110 % of control | dose: 50.0 mg/kg/injection, schedule: Q04DX002 (ip), vehicle: Klucel (hydroxypropylcellulose) (HPC) 104 % of control | dose: 100.0 mg/kg/injection, schedule: Q04DX002 (ip), vehicle: Klucel (hydroxypropylcellulose) (HPC) 100 % of control

CN1NC(=O)C2CCCC1O2 (configuration not stated)
inactive: dose: 100.0 mg/kg/injection, schedule: Q01DX001 (ip), vehicle: saline 95 % of control | dose: 200.0 mg/kg/injection, schedule: Q01DX001 (ip), vehicle: saline 105 % of control | dose: 400.0 mg/kg/injection, schedule: Q01DX001 (ip), vehicle: saline 94 % of control

C=Cc1ccccc1 (tested in a mixture with another compound)
inactive: dose: 75.0 mg/kg/injection, schedule: Q01DX001 (ip), vehicle: other 101 % of control | dose: 150.0 mg/kg/injection, schedule: Q01DX001 (ip), vehicle: other 97 % of control | dose: 300.0 mg/kg/injection, schedule: Q01DX001 (ip), vehicle: other 87 % of control

CCSC(=O)Nc1cccc(O)c1
inactive: dose: 100.0 mg/kg/injection, schedule: Q01DX001 (ip), vehicle: saline + alcohol 94 % of control | dose: 200.0 mg/kg/injection, schedule: Q01DX001 (ip), vehicle: saline + alcohol 94 % of control | dose: 400.0 mg/kg/injection, schedule: Q01DX001 (ip), vehicle: saline + alcohol 93 % of control

COC(=O)NC1CCCCC1I (configuration not stated)
inactive: [10] 89 % of control | [12] 95 % of control | [11] 101 % of control | [13] 98 % of control | [14] 96 % of control | [15] 93 % of control

O=c1[nH]c(=O)n(CCc2cccs2)cc1F
inactive: [10] 98 % of control | [12] 93 % of control | [11] 96 % of control | [13] 96 % of control | [14] 98 % of control | [15] 95 % of control
